Results as given in patent publication US4444753A, “Pharmaceutical composition comprising extract from poison pouch contents of bee” (priority 1979, dated 1984).

Legend:
[1] = tested on: Ehrlich's ascites cancerous cells; test: Enhancement of carcinostatic activity of Carboquan or Adriamycin to Ehrlich's ascites cancer cells (Table 10); assay type: in vivo, mouse (ICR-strain); conditions: 1×10^5 cells, B-TL 1/10 none or 0.25 ml × 7 s.c.
Method: (2) Ehrlich's ascites cancerous cells were inoculated intraperitoneally into ICR-strain mice male, 6 weeks old) in an amount of 1×10^5 cells per mouse. B-TL 1/10 was administered subcutaneously at the back at a dose of 0.25 ml per mouse once a day repeatedly from the day of inoculation for 7 days in total. On the day following the inoculation of the cancerous cells, 0.25 mg/kg of Carboquan (CQ) or 5 mg/kg of Adriamycin (AM) was administered intraperitoneally.

[2] = tested on: B-16 melanoma cancerous cells; test: Enhancement of carcinostatic activity of Adriamycin to B-16 melanoma cancerous cells (Table 12); assay type: in vivo, mouse (BDF1-strain); conditions: 0.2 g cells i.p.; AM 2 mg/kg i.p., B-TL 1/10 none or 0.25 ml × 7 s.c.
Method: Fifteen grams of B-16 melanoma cell cluster was milled by means of a mesh, and then suspended in 15 ml of a physiological salt solution, after which the resulting suspension was transplanted intraperitoneally in BDF1 -strain mice (male, 6 weeks old) in an amount of 0.2 ml per mouse (i.e., 0.2 g of the cells were transplanted per mouse). B-TL 1/10 was administered subcutaneously at the back at a dose of 0.25 ml per mouse once a day for 7 days from the day of transplantation. Adriamycin (AM) was administered intraperitoneally once at a dose of 2 mg/kg on the day following the day of cancer transplantation.

L-1210 leukemia cells [3] = test: Enhancement of carcinostatic activity of Arabinofuranocylcytocine to L-1210 leukemia cells (Table 6); assay type: in vivo, mouse (BDF1-strain); conditions: 1×10^3 cells; Ara-C 30 mg/kg × 5 i.p., B-TL 1/10 none or 0.25 ml × 7 s.c.
Method: (3) L-1210 leukemia cells were inoculated intraperitoneally into BDF1 -strain mice (male, 6 to 7 weeks old) in an amount of 1×10^3 cells per mouse, and B-TL 1/10 was administered subcutaneously at the back at a dose of 0.25 ml per mouse once a day repeatedly from the day of inoculation for 7 days in total. Arabinofuranocylcytocine (Ara-C) was administered intraperitoneally at a dose of 30 mg/kg once a day from the day following the inoculation of the cancerous cells for 5 days in total.

P-388 leukemia cells = test: Enhancement of carcinostatic activity of Mitomycin C to P-388 leukemia cells (Table 8); assay type: in vivo, mouse (BDF1-strain); conditions: 1×10^3 cells; MMC 0.5 mg/kg i.p., B-TL 1/10 none or 0.25 ml × 7 s.c.
Method: P-388 leukemia cells were inoculated intraperitoneally into BDF1 -strain mice (male, 7 weeks old) in an amount of 1×10^3 cells per mouse, and B-TL 1/10 was administered subcutaneously at the back at a dose of 0.25 ml per mouse on the day of inoculation and thereafter administered subcutaneously at the back at the same dose once a day repeatedly for 7 days. Mitomycin C (MMC) was administered intraperitoneally at a dose of 0.5 mg/kg on the first day after the inoculation of the P-388 leukemia cells.

[4] = tested on: Ehrlich's ascites cancerous cells; test: Enhancement of carcinostatic activity of Mitomycin C to Ehrlich's ascites cancer cells, B-TL 1/10 pretreatment (Table 11); assay type: in vivo, mouse (ICR-strain); conditions: 1×10^5 cells, B-TL 1/10 none or 0.25 ml × 8 s.c.
Method: (3) B-TL 1/10 was administered subcutaneously at the back of ICR-strain mice (male, 5 weeks old) at a dose of 0.25 ml per mouse once a day repeatedly for 8 days in total, and on the day following the eighth administration, 1×10^5 Ehrlich's ascites cancerous cells were inoculated intraperitoneally. On the day following the inoculation of the cancerous cells, Mitomycin C (MMC) was administered intraperitoneally at a dose of 0.5 mg/kg or 1 mg/kg.

L-1210 leukemia cells [5] = test: Enhancement of carcinostatic activity of Mitomycin C to subcutaneous L-1210 tuberous tumor (Table 7); assay type: in vivo, mouse (BDF1-strain)
Method: (4) L-1210 leukemia cells were inoculated subcutaneously at the armpit of BDF1 -strain mice (male, 7 weeks old) in an amount of 1×10^6 cells per mouse to form a tuberous tumor. B-TL 1/10 was administered subcutaneously at the back at a dose of 0.25 ml per mouse once a day repeatedly from the first day after the inoculation of the cancerous cells for 7 days in total, and Mitomycin C was administered into the tumor at a dose of 4 mg/kg on the first day after the inoculation of the cancerous cells.

L-1210 leukemia cells [6] = test: Enhancement of carcinostatic activity of Mitomycin C to L-1210 leukemia cells (Table 4); assay type: in vivo, mouse (BDF1-strain); conditions: for Number of survivors/Number of tested mice (on the 38th day) / T/C (%): MMC 4 mg/kg i.p., B-TL 1/10 none or 0.25 ml × 7 s.c.
Method: (§1) (1) L-1210 leukemia cells were inoculated intraperitoneally into BDF1 -strain mice (male, 6 to 7 weeks old) in an amount of 1×10^3, 1×10^4 or 1×10^5 cells per mouse, B-TL 1/10 was administered subcutaneously at the back at a dose of 0.25 ml per mouse once a day repeatedly from the day of inoculation for 7 days in total. Mitomycin C (MMC) was administered intraperitoneally at a dose of 4 mg/kg on the first day after the inoculation of the cancerous cells.

L-1210 leukemia cells [7] = test: Enhancement of carcinostatic activity of Mitomycin C to L-1210 leukemia cells, divided B-TL 1/10 dosing (Table 5); assay type: in vivo, mouse (BDF1-strain); conditions: MMC 4 mg/kg
Method: as §1
(2) In the same manner as in (1), L-1210 leukemia cells were inoculated and MMC and the B-T were administered. B-TL 1/10 was administered subcutaneously at the back, […], and once on the third, 4th, 5th and 6th days after the inoculation.

[8] = tested on: Ehrlich's ascites cancer cells; test: Enhancement of carcinostatic activity of Mitomycin C to Ehrlich's ascites cancer cells (Table 9); assay type: in vivo, mouse (ICR-strain); conditions: 1×10^5 cells; MMC 0.5 mg/kg i.p.
Method: (1) Ehrlich's ascites cancer cells were inoculated intraperitoneally into ICR-strain mice (female, 6 weeks old) in an amount of 1×10^5 cells per mouse, and B-TL 1/10 was administered subcutaneously at the back at a dose of 0.25 ml per mouse once a day repeatedly from the third day after the inoculation of the cancerous cells for 7 days in total. Mitomycin C (MMC) was administered intraperitoneally at a dose of 0.5 mg/kg on the first day after the inoculation of the cancerous cells.

Escherichia coli TK-16 [9] = test: Antibacterial activity-enhancing effect with Piperacillin in Escherichia coli infection (Table 17); assay type: in vivo, Escherichia coli; ICR-strain mice; conditions: for Number of survivors: 2×10^7 cells/mouse, 5 mice, 7th day
Method: Escherichia coli TK-16 was administered intraperitoneally into a group of five ICR-strain mice (male, 4 weeks old) in an amount of 2×10^7 cells/mouse, and after one hour, Piperacillin was administered once subcutaneously at the back. B-TL 1/5 was administered subcutaneously at the back at a dose of 0.25 ml per mouse once a day on the 7th, 6th and 5th days before the inoculation of the bacteria, and B-TL 1/10 at a dose of 0.25 ml per mouse once a day on the second and first days before the inoculation of the bacteria. A physiological salt solution was administered to the control group in the same manner as above, and the numbers of the survivors on the 7th day after the inoculation of the bacteria were observed.

Escherichia coli TK-16 [10] = test: Infection-controlling effect at a low immunity (cyclophosphamide-treated mice, Table 16); assay type: in vivo, Escherichia coli; ICR-strain mice; conditions: for Number of survivors: 15 mice, cyclophosphamide 100 mg/kg, 7th day
Method: Cyclophosphamide was administered intraperitoneally into a group of fifteen ICR-strain mice (male, 4 weeks old) at a dose of 100 mg/kg. On the next day, B-TL 1/10 was administered subcutaneously at the back at a dose of 0.25 ml per mouse once a day repeatedly for 4 days, and a physiological salt solution was administered to the contorl group in the same manner as described above. On the day following the administration of B-TL 1/10, Escherichia coli TK-16 was administered intraperitoneally, and the numbers of the survivors on the 7th day after the inoculation of the bacteria were observed.

[11] = 1×10^6 cells s.c., MMC 4 mg/kg into the tumor, B-TL 1/10 none or 0.25 ml × 7 s.c.

COC(COC(N)=O)C1=C(N2CC2)C(=O)C(C)=C(N2CC2)C1=O (racemic) [CQ, Carboquan]
Number of survivors/Number of tested mice (on the 40th day) ([1]; CQ 0.25 mg/kg i.p.): 0/4
T/C (%) ([1]; CQ 0.25 mg/kg i.p.): 138%

COc1cccc2c1C(=O)c1c(O)c3c(c(O)c1C2=O)C[C@@](O)(C(=O)CO)C[C@@H]3O[C@H]1C[C@H](N)[C@H](O)[C@H](C)O1 [AM, Adriamycin]
Number of survivors/Number of tested mice (on the 35th day) [2]: 1/4
T/C (%) [2]: 182%
Number of survivors/Number of tested mice (on the 40th day) ([1]; AM 5 mg/kg i.p.): 2/4
T/C (%) ([1]; AM 5 mg/kg i.p.): 175%

Nc1ccn([C@@H]2O[C@H](CO)[C@@H](O)[C@@H]2O)c(=O)n1 [Ara-C, Arabinofuranocylcytocine]
Number of survivors/Number of tested mice (on the 30th day) (L-1210 leukemia cells [3]): 0/4
T/C (%) (L-1210 leukemia cells [3]): 152%

CO[C@@]12[C@H](COC(N)=O)C3=C(C(=O)C(C)=C(N)C3=O)N1C[C@@H]1N[C@@H]12 [MMC, Mitomycin C]
Number of survivors/Number of tested mice (on the 41st day) (P-388 leukemia cells): 0/3
T/C (%) (P-388 leukemia cells): 101%
Number of survivors/Number of tested mice (on the 40th day) ([4]; MMC 0.5 mg/kg i.p.): 1/5
T/C (%) ([4]; MMC 0.5 mg/kg i.p.): 157%
Number of survivors/Number of tested mice (on the 40th day) ([4]; MMC 1 mg/kg i.p.): 0/5
T/C (%) ([4]; MMC 1 mg/kg i.p.): 172%
Number of survivors/Number of tested mice (on the 30th day) (L-1210 leukemia cells [5]; [11]): 4/5
T/C (%) (L-1210 leukemia cells [5]; [11]): 304%
Weight of tumor, Ratio to Control (L-1210 leukemia cells [5]; 30th day versus control measured on 8-10th day (control = 100)): 156
Weight of tumor (L-1210 leukemia cells [5]; on the 30th day, 4 survivors among 5, MMC 4 mg/kg, B-TL 1/10 none or 0.25 ml × 7): 808 ± 461 mg
Number of survivors/Number of tested mice (on the 38th day) (L-1210 leukemia cells [6]; 1 × 10^3 cells/mouse): 4/13
T/C (%) (L-1210 leukemia cells [6]; 1 × 10^3 cells/mouse): 192%
life-prolonging effect (in words) (L-1210 leukemia cells [6]; 1×10^3 cells, same tendency at 1×10^4 and 1×10^5): a life-prolonging effect was observed
Number of survivors/Number of tested mice (on the 38th day) (L-1210 leukemia cells [6]; 1 × 10^4 cells/mouse): 2/9
T/C (%) (L-1210 leukemia cells [6]; 1 × 10^4 cells/mouse): 188%
Number of survivors/Number of tested mice (on the 38th day) (L-1210 leukemia cells [6]; 1 × 10^5 cells/mouse): 0/4
T/C (%) (L-1210 leukemia cells [6]; 1 × 10^5 cells/mouse): 136%
Number of survivors/Number of tested mice (on the 40th day) (L-1210 leukemia cells [7]; 1 × 10^3 cells/mouse): 1/4
T/C (%) (L-1210 leukemia cells [7]; 1 × 10^3 cells/mouse): 187%
Number of survivors/Number of tested mice (on the 40th day) (L-1210 leukemia cells [7]; 1 × 10^4 cells/mouse): 1/4
T/C (%) (L-1210 leukemia cells [7]; 1 × 10^4 cells/mouse): 202%
Number of survivors/Number of tested mice (on the 40th day) (L-1210 leukemia cells [7]; 1 × 10^5 cells/mouse): 0/4
T/C (%) (L-1210 leukemia cells [7]; 1 × 10^5 cells/mouse): 136%
Number of survivors/Number of tested mice (on the 40th day) [8]: 1/10
T/C (%) [8]: 158%

CCN1CCN(C(=O)N[C@@H](C(=O)N[C@@H]2C(=O)N3[C@@H]2SC(C)(C)[C@@H]3C(=O)O)c2ccccc2)C(=O)C1=O [Piperacillin]
Number of survivors (Escherichia coli TK-16 [9]; Piperacillin 0.156 mg/mouse s.c.): 0
Number of survivors (Escherichia coli TK-16 [9]; Piperacillin 0.313 mg/mouse s.c.): 0
Number of survivors (Escherichia coli TK-16 [9]; Piperacillin 0.625 mg/mouse s.c.): 1
Number of survivors (Escherichia coli TK-16 [9]; Piperacillin 1.25 mg/mouse s.c.): 0
Number of survivors (Escherichia coli TK-16 [9]; Piperacillin 2.5 mg/mouse s.c.): 2
ED50 (Escherichia coli TK-16 [9]; Piperacillin dose, without or with B-TL 1/5 then B-TL 1/10 pretreatment): 3.54 mg/mouse

O=P1(N(CCCl)CCCl)NCCCO1 (centres unmarked) [cyclophosphamide, Cyclophosphamide]
Number of survivors (Escherichia coli TK-16 [10]; 1.0 × 10^6 cells/mouse): 3
Number of survivors (Escherichia coli TK-16 [10]; 2.0 × 10^5 cells/mouse): 10
Number of survivors (Escherichia coli TK-16 [10]; 3.0 × 10^5 cells/mouse): 10
Number of survivors (Escherichia coli TK-16 [10]; 4.0 × 10^5 cells/mouse): 6
Number of survivors (Escherichia coli TK-16 [10]; 8.0 × 10^5 cells/mouse): 4
LD50 versus control (in words) (Escherichia coli TK-16 [10]; Table 16): significantly lower
LD50 (of bacteria) (Escherichia coli TK-16 [10]; cyclophosphamide 100 mg/kg i.p., without or with B-TL 1/10 0.25 ml s.c. × 4 days): 2.7 × 10^5 cells/mouse
infection-controlling effect (in words) (Escherichia coli TK-16 [10]; mice given cyclophosphamide): the inhibition of the infection-controlling effect was confirmed
